Assay results reported in US20150258050A1, “METHOD FOR REDUCING TRIGLYCERIDES” (DEAKIN UNIVERSITY, priority 2012, published 2015).
Entries after “also recorded” stand apart in the source; their conditions may differ.

What was measured:
[1] = Chylomicron TAG polyunsaturated fatty acids (gas chromatography of FAME); type: in vivo, human; details: for EPA (20:5n-3) proportion in chylomicron TAGs: one to five hours postprandial, compared to the other breakfasts
Experimental: (§1) This was a postprandial study where fasting blood was taken, followed by the consumption of a breakfast containing placebo (olive oil) or active oils (EPA or DPA) and then hourly post prandial blood samples were taken up to 5-hours.
(§2) The study breakfast consisted of 180 grams of instant mashed potato (Continental Deb™, Unilever, Australasia) mixed with 70 ml boiled water and 20 grams of oil. In each of the three meals 18 grams of lipids consisted of olive oil (La Espanola Pure Olive Oil, Seville, Spain). The DPA breakfast included 2 g of DPA (Equateq Ltd, Breasclete, Callanish, Scotland), the EPA breakfast 2 g of EPA (Equateq Ltd, Breasclete, Callanish, Scotland) and the control (olive oil) meal an additional 2 g of olive oil. EPA and DPA were included in the olive oil as free fatty acids. The subjects could use salt, pepper or chicken flavoured salt with the meal and were provided with water throughout the study period ad libitum. Subjects consumed the study meal within 15 minutes.
(§3) A chylomicron-rich fraction (Svedberg flotation unit (Sf) >400), later abbreviated to “chylomicrons”, was isolated from plasma by ultracentrifugation using a Beckman ultra centrifuge and TLA 100.4 rotor (Beckman instruments, Palo Alto, Calif., USA) as previously described (Ågren et al., 2006). Briefly 1.8 ml of EDTA plasma was overlaid with saline solution (density=1.006 kg/I) in ultracentrifuge tubes and centrifuged at 35,000×g for 30 min at 23° C. The top 1 millilitre was aspirated to remove the chylomicron-rich fraction. All samples were frozen at −80° C. prior analysis.
An internal standard mixture of triheptadecanoin (Sigma-Aldrich, St. Louis, Mo., USA), dinonadecanoylphosphatidylcholine (Sigma-Aldrich, St. Louis, Mo., USA) and cholesterylpentadecanoate (Nu-Chek Prep. Inc., Elysian, Minn., USA) was added to the isolated chylomicrons. Then 1.5 ml methanol, 3 ml chloroform and 0.8 ml 0.88% KCl in water were added and the blend was thoroughly vortexed after each addition. The tubes were centrifuged 2000×g for 3 minutes to separate the layers, and the chloroform rich layer was removed and evaporated to dryness (Folch et al., (1957) J Biol Chem 226:497-509). TAGs and phospholipids were isolated from the extracted lipid mixture with solid phase extraction based on silica columns (Hamilton and Comai, (1988) Lipids 23:1146-1149).
Fatty acid methyl esters (FAME) were prepared with a sodium methoxide method. In short, the lipids were suspended to 1 ml dry diethylether. 25 μl methylacetate and 25 μl sodium methoxide were added and the blend was incubated for 5 minutes while shaken at times. The reaction was stopped with 6 μl acetic acid. The tubes were centrifuged 2000×g for 5 minutes, after which the supernatant was removed and gently evaporated to dryness. The resulting FAME were transferred to 100 μl inserts in hexane (Christie (1982) J Lipid Res 23:1072-1075). The FAME were analysed with gas chromatography (Shimadzu GC-2010 equipped with AOC-20i auto injector, flame ionization detector (Shimadzu corporation, Kyoto, Japan) and wall coated open tubular column DB-23 (60 m×0.25 mm i.d., liquid film 0.25 μm, Agilent technologies, J.W. Scientific, Santa Clara, Calif., USA). Splitless/split injection was used and the split was opened after 1 min. Supelco 37 Component FAME Mix (Supelco, St. Louis, Mo., USA), 68D (Nu-Check-Prep, Elysian, Minn., USA) and GLC-490 (Nu-Check-Prep, Elysian, Minn., USA) were used as external standards.

[2] = Chylomicron phospholipid fatty acids (gas chromatography of FAME); type: in vivo, human; details: at 2 h
Experimental: as §1
as §2, with “EPA and DPA were included in the olive oil as free fatty acids. The subjects could use salt, pepper or chicken flavoured salt with the meal and were provided with water throughout the study period ad libitum. Subjects consumed the study meal within 15 minutes.” left out
Fatty acid methyl esters (FAME) were prepared with a sodium methoxide method. […] The FAME were analysed with gas chromatography (Shimadzu GC-2010 equipped with AOC-20i auto injector, flame ionization detector (Shimadzu corporation, Kyoto, Japan) and wall coated open tubular column DB-23 (60 m×0.25 mm i.d., liquid film 0.25 μm, Agilent technologies, J.W. Scientific, Santa Clara, Calif., USA). Splitless/split injection was used and the split was opened after 1 min. Supelco 37 Component FAME Mix (Supelco, St. Louis, Mo., USA), 68D (Nu-Check-Prep, Elysian, Minn., USA) and GLC-490 (Nu-Check-Prep, Elysian, Minn., USA) were used as external standards.

[3] = Lipidomics of PUFA containing chylomicron TAGs (LC-ESI-MS/MS); type: in vivo, human; details: 3 and 5 hour time points
Experimental: Lipidomic analysis of the one, three and five hour chylomicron samples was performed by liquid chromatography, electrospray ionisation-tandem mass spectrometry using an Applied Biosystems 4000 QTRAP mass spectrometer running Analyst 1.5 software. Liquid chromatography was performed on a Zorbax C18, 1.8 μm, 50×2.1 mm column (Agilent technologies, Santa Clara Calif., USA). The lipids of the chylomicrons were extracted with chloroform:methanol (2:1, 20 volumes), mixed, sonicated (30 mins) and allowed to stand for 20 mins. Samples were centrifuged (16 000×g, 10 min) and the supernatant transferred to a 96 well PPE plate and dried until a stream of nitrogen at 40° C. […] Quantification of individual TAG species was performed using scheduled multiple-reaction monitoring (MRM) in the positive ion mode (Murphy et al., (2007) Anal Biochem 366:59-70). Lipid concentrations (pmol/mL) were calculated by relating the peak area of each species to the peak area of the internal standard of triheptadecanoin (Sigma Aldrich, St Louis Mo., USA) for TAGs, cholestyl ester-18:0D6 (CDN isotopes, Quebec, Canada) for cholesteryl esters, phosphatidyl choline-13:0/13:0 (Avanti Polar Lipids, Alabaster Ala., USA) for phosphatidyl cholines and phosphatidyl ethanolamine-17:0/17:0 (Avanti Polar Lipids, Alabaster Ala., USA) for ethanolamines and phosphatidyl inositols (using Multiquant 1.2 software). […]

[4] = Complaints reported after the study breakfasts; type: in vivo, human
Experimental: as §2
After the DPA meal, there were two cases of diarrhea and one case of upset stomach but no diarrhea. One case of diarrhea was reported after the EPA meal, and there were no complaints after the olive oil meal. All complaints occurred 2 to 3 hours after the breakfast.

[5] = Postprandial plasma triacylglycerol concentration after test breakfasts (randomized cross-over study); type: in vivo, human
Description: (§4) Ten healthy normal weight females between the age of 20 to 30 of took part in a randomized cross over study with three different breakfast meals. […] The baseline values for EPA and DHA proportions in erythrocytes were 1.0±0.1 and 6.7±0.6% (mean±standard error of the mean). Subjects with any form of cardiovascular disease based on self reported medical status and family history were excluded from the study. All subjects provided written informed consent. Ethics approval was obtained from the Deakin University Human Research Ethics Committee (EC2011-023).
as §1, §2
Venous blood was drawn at the fasting state and hourly post prandial for one to five hours. EDTA blood samples were immediately centrifuged for fifteen minutes at 591×g to isolate the plasma.
(§5) TAG concentrations in plasma and the isolated chylomicrons were measured on a Roche Cobas Integra 400 plus autoanalyser (Roche, Lavel, Quebec, Canada) by enzymatic colorimetric method using commercially available kits (TRIGL) as per the manufacturer's instructions (Roche, Lavel, Quebec, Canada).

[6] = rats, short term supplementation; cited from earlier work
[7] = Postprandial triacylglycerol concentration in chylomicron-rich fraction after test breakfasts; type: in vivo, human
Description: as §4, §1, §2, §3, §5

[8] = 2 g in breakfast, 10 subjects, 2 to 3 hours after breakfast

Compound | DHA (22:6n-3) in chylomicron TAGs, compared to olive oil breakfast ([1]; at 5 h) | EPA (20:5n-3) proportion in chylomicron TAGs [1] | Amount of DPA and DHA in chylomicron phospholipids, compared to olive oil breakfast [2] | Proportion of EPA in chylomicron phospholipids, compared to the two other breakfasts [2] | TAG 58:9 in chylomicrons, compared to olive oil breakfast [3] | Cases of diarrhea after the meal [4, 8] | Difference between plasma TAG areas, compared to control meal ([5]; 2 g in breakfast, p=0.078) | Plasma TAG concentration at individual time points, compared to control meal ([5]; one and two hours, p=0.024 and p=0.014) | Plasma triglyceride level after consumption ([5]; postprandial) | DHA (22:6n-3) in chylomicron TAGs, compared to olive oil breakfast ([1]; at 2 h and 3 h) | DPA (22:5n-3) content in chylomicron TAGs ([1]; vs olive oil meal 2-5 h (3 h p=0.06), vs EPA meal 3-5 h) | Concentration of DHA in liver [6] | Concentration of EPA in the liver, heart and skeletal muscle [6] | Incorporation of fatty acids in chylomicrons ([7]; 2 g added to 18 g olive oil, within five hours) | Chylomicron TAG level after the breakfast ([7]; 2 g free fatty acid in 18 g olive oil, up to 5 h postprandial, n=10) | Incremental area under the chylomicron TAG curve, compared to olive oil meal ([7]; 2 g in breakfast, p=0.021) | Incremental area under the chylomicron TAG curve, compared to EPA meal ([7]; 2 g in breakfast, p=0.034) | Chylomicron TAG concentration at individual time points, compared to control meal ([7]; one and two hours, p=0.017 and p=0.068) | Cases of upset stomach but no diarrhea after the meal [4, 8] | Subjects reporting diarrhea or upset stomach ([4]; in the three hours following the breakfast)
CC/C=C\C/C=C\C/C=C\C/C=C\C/C=C\CCCC(=O)O [EPA, eicosapentaenoic acid, reference compound] | significantly increased | significantly higher | increased | increased | significantly more | One |  |  |  |  |  |  |  |  |  |  |  |  |  | 
CCC=CCC=CCC=CCC=CCC=CCCCCCC(=O)O [DPA, 7, 10, 13, 16, 19 docosapentaenoic acid] |  | did not raise |  |  | significantly more | two | tended to be significant | smaller | remained close to fasting levels | significantly increased | significantly higher | significantly increased | significantly increased | almost completely eliminates | remained close to fasting levels; also recorded: remained at almost fasting level | significantly reduced | significantly reduced | smaller | one | three out of the ten
